From US11597726B2 (Certego Therapeutics Inc., priority 2020, dated 2023)
“Also recorded” adds a separate entry of the source. Where two headings read alike, the source gives them in different places.

How the values were obtained:
[1] = system: c-fos; experiment: Pharmacomapping: whole-brain drug-evoked c-fos activation; details: for brain activation compared with non-deuterated gaboxadol at the same dose: 2.5 hour post administration; for brain activation of each drug alone: gaboxadol at 3 mg/kg alone, ketamine at 6 mg/kg alone; for brain activation compared with gaboxadol: BSTrh
Experimental: (A) Mice are treated with a drug or vehicle solution for the control group using either intraperitoneal (i.p.), per oral (p.o.). subcutaneous (s.c.), intramuscular (i.m.) or intravenous (i.v.) delivery. […] (C) After that period the mice are killed, the c-fos induction is visualized using whole-brain immunostaining, the brains are chemically cleared and finally imaged by light-sheet fluorescent microscopy (LSFM). (D) The whole-brain scans are represented as serial section datasets typically with XYZ resolution of 4×4×5 microns. (E) The c-fos+ cells are detected in these datasets using custom trained machine learning algorithms. (F) The whole-brain distribution of the detected c-fos+ cells is represented in 3D as a spatial map of centroid points in the 3D space of the mouse brain. (G) This 3D map distribution is registered to a reference mouse brain and spatially voxelized using overlapping 150-micron sphere voxels.
At 2.5 hour post administration, the mice were euthanized and brains were immediately preserved by 4% paraformaldehyde (PFA).

[2] = system: mice; experiment: Onset of sedation (immobility) in the open field test (OFT); type: in vivo
[3] = system: mouse; experiment: Forced swim test; type: in vivo; details: single dose 10 mg/kg, 1 hour and 24 hours after drug delivery, 6 min forced swim
Experimental: The forced swim test is a frequently used behavioral protocol with a well-established therapeutic predictability for a broad range of antidepressants including ketamine (Porsolt et al. 1977; Cryan and Mombereau 2004; Cryan et al. 2005; Lucki et al. 2001). In this test the mouse is put in a beaker filled with water and the time spent struggling, swimming and floating is measured, with the time spent floating—when the mouse stops struggling to swim—being used as a behavioral correlate of depression.

[4] = system: combined delta, theta and alpha activity; details: 160 minutes after the first treatment; cited from earlier work
[5] = human doses equivalent to the mouse 6 mg/kg dose; cited from earlier work
[6] = system: patients with severe major depressive disorder; details: 490 patients; daily oral escitalopram 20 mg and gaboxadol 5 mg or 10 mg; cited from earlier work
[7] = 20 mg dose; cited from earlier work
[8] = system: GABAA receptor; details: in vivo; cited from earlier work
[9] = system: rodent; experiment: d-amphetamine-induced hyperlocomotion (rodent model of mania); type: in vivo; details: gaboxadol at 3 mg/kg alone
[10] = system: insomnia; details: three-month efficacy study; cited from earlier work
[11] = system: cytochrome P450s (CYPs); details: cited from earlier work
[12] = cited from earlier work

## [2H]C1([2H])NCCc2c1o[nH]c2=O [d2-gaboxadol 7,7, 4,5,6,7-tetrahydroisoxazolo[5,4-c]pyridin-3(2H)-one-7,7-d2]
[1]; 6 mg/kg i.p., ORBm, ILA, ACAd, AI, GU, VISC, CLA, LSr, BSTa
  brain activation compared with non-deuterated gaboxadol at the same dose: considerably higher brain activation than non-deuterated gaboxadol
[1]; 6 mg/kg i.p., ORBm, ILA, ACAd, AI, GU, VISC, CLA, LSr, BSTa, listed as d2-gaboxadol
  brain activation compared with non-deuterated gaboxadol at the same dose: considerably stronger
[1]; 6 mg/kg with lithium at 150 mg/kg (FIG. 38)
  enhancement of synergies with lithium compared with non-deuterated gaboxadol: significantly stronger enhancement of synergies with lithium than is found with non-deuterated gaboxadol
[1]; 6, 10 and in some cases 20 mg/kg, certain brain areas (e.g. ILA and CP)
  level of brain activation compared with the same doses of non-deuterated gaboxadol: higher than the level of activation obtained by the same doses of non-deuterated gaboxadol
[1]; d2-gaboxadol 7,7 at 6 mg/kg, mice, listed as ring carbon deuterated gaboxadol (7,7-d2), 6 mg/kg
  dose of non-deuterated gaboxadol with equivalent/comparable brain activation: 10 to 20 mg/kg
[2]
  onset of sedation (start of immobility): 13 min
[2]; listed as d2-gaboxadol
  onset of sedation (start of immobility): 13 to 14 min

## CNC1(c2ccccc2Cl)CCCCC1=O (stereo not shown) [ketamine]
[3]
  time spent floating (immobility) compared to vehicle treated control group: significantly reduced the time spent in floating; also recorded: significantly decreases the time the drug treated mice spent floating
[1]; acute single dose 10 mg/kg, many cortical areas and midline thalamic nuclei
  whole-brain activation pattern: very robust and broad activation
[1]; acute single dose 5 and 100 mg/kg
  whole-brain activation pattern: modest activation
[1]
  brain activation of each drug alone: neither gaboxadol at 3 mg/kg nor ketamine at 6 mg/kg alone evoked any brain activation detectable

## Oc1noc2c1CCNC2 [gaboxadol, 4,5,6,7-tetrahydroisoxazolo (5,4-c) pyridin-3-ol]
[4]
  whole head MEG planar gradiometer increase in combined delta, theta and alpha activity: ≥ +3
[3]
  time spent floating (immobility) compared to vehicle treated control group: significantly reduced the time spent in floating; also recorded: nearly identical behavioral effect as the ketamine group
[5]
  adverse side-effects in clinical trials: no significant adverse side-effects
[6]
  benefit of oral gaboxadol added to escitalopram: no additional benefit relative to escitalopram alone
[1]; gaboxadol 10 mg/kg vs ketamine 10 mg/kg
  whole-brain activation pattern compared with ketamine: very similar brain activation as ketamine
[1]
  brain activation of each drug alone: neither gaboxadol at 3 mg/kg nor ketamine at 6 mg/kg alone evoked any brain activation detectable
[1]; lithium at 150 mg/kg alone, gaboxadol at 6 mg/kg alone
  brain activation of each compound alone: moderate brain activation on their own
[7]
  AUC0-∞: about 900 ng*hr/ml
  Cmax: 900 ng/mL
  plasma Tmax: ≤ 1.5 h
[8]
  GABAA receptor saturation level (blood level): over 900 ng/ml
[9]
  effect on amphetamine-induced hyperlocomotion: only modestly
[2]
  onset of sedation (start of immobility): 15 min
[10]
  effects in sleep onset and sleep maintenance: failed to show significant effects in sleep onset and sleep maintenance
[11]
  metabolism by CYPs: not metabolized by CYPs

## [2H]C1([2H])NC([2H])([2H])C([2H])([2H])c2c1o[nH]c2=O [d6-gaboxadol, 4,5,6,7-tetrahydroisoxazolo[5,4-c]pyridin-3(2H)-one-4,4,5,5,7,7-d6]
[1]; 6 mg per kg, GU, VISC, AI (AId, AIp), TEa, CLA, BSTa, LC
  brain activation compared with gaboxadol: higher brain activation than gaboxadol
[1]; 10 mg per kg, ACA (ACAd, ACAv), ILA, GU, VISC, AI, TEa, CLA, BSTa
  brain activation compared with gaboxadol: more efficacious in evoking brain activation than gaboxadol
[1]; 20 mg per kg, BSTa, BSTov, BSTp, LC, CP, STRv (ACB, OT)
  brain activation compared with gaboxadol: higher brain activation than gaboxadol
[1]; 6, 10 and 20 mg per kg i.p.
  brain activation compared with non-deuterated gaboxadol at the same dose: considerably higher brain activation than non-deuterated gaboxadol
[2]
  onset of sedation (start of immobility): 11 min

## [Li] [lithium]
[12]; acute treatment of manic episodes
  typical therapeutic concentration in the serum: 0.6 to 1.2 mmol/L
[12]; in vivo
  serum concentration associated with mild toxicity: 1200 to 2500 µM
  serum concentration that can be life-threatening: greater than 3.5 mmol/L
